Patent US8580829B2 (Boehringer Ingelheim International GmbH, priority 2010, dated 2013)
Read-outs that look alike come from different tables or passages of the source.

How the values were obtained:
[1] = target: T1, recombinant human FLAP protein (Homo sapiens, UniProt P20292); assay: FLAP binding assay (Scintillation Proximity Assay, displacement of [125I]L-691,831); conditions: recombinant human FLAP membranes, [125I]L-691,831 probe; read-out: FLAP SPA IC50
T1 construct: made in house; host or cells: Sf9 insect cells (100,000 x g membrane fraction)
T1 sequence (P20292 1-161): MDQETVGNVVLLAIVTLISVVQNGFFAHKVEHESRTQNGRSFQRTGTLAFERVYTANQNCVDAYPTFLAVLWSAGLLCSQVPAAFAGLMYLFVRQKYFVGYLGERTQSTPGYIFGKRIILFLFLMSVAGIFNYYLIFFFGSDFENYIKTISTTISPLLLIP
Summary of the method: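 Membranes came from Sf9 insect cells expressing recombinant human FLAP, collected as the 100,000×g pellet in Tris pH 7.5/MgCl2/EDTA buffer. 5 μg membrane protein was coupled to WGA SPA beads for 1 h.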

[2] = test system: synthesis of LTB4 in human whole blood; assay: human whole blood LTB4 production inhibition assay; assay type: cell-based; conditions: heparinized human whole blood, calcimycin 20 μM, read-out: hWB LTB4 IC50
Summary of the method: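 Heparinized human whole blood preincubated with compound 15 min at 37 °C, then stimulated with calcimycin (20 μM final) for 30 min at 37 °C. Plasma LTB4 measured after low-speed centrifugation by antibody-based homogeneous time-resolved fluorescence.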

Compound | IC50 [1] [nM] | IC50 ([2]; Homo sapiens) [nM] | IC50 [2] [nM]
CN(CC1CCOCC1)c1nc(C2(c3ccc(-c4cnc(N)nc4)cc3)CCC2)no1 [Example 292, 5-[4-(1-{5-[Methyl-(tetrahydro-pyran-4-ylmethyl)-amino]-[1,2,4]oxadiazol-3-yl}-cyclobutyl)-phenyl]-pyrimidin-2-ylamine] | 22 | 330 | –
Nc1ncc(-c2ccc(C3(c4noc(-c5cn(C(c6ccccc6)(c6ccccc6)c6ccccc6)cn5)n4)CCC3)cc2)cn1 [Example 244, 5-(4-{1-[5-(1-Trityl-1H-imidazol-4-yl)-[1,2,4]oxadiazol-3-yl]-cyclobutyl}-phenyl)-pyrimidin-2-ylamine] | 250 | > 5000 | –
CS(=O)(=O)c1ccc(-c2nc(C3(c4ccc(-c5cnc(N)nc5)cc4)CCC3)no2)cc1 [Example 36, 5-(4-{1-[5-(4-Methanesulfonyl-phenyl)-1,2,4-oxadiazol-3-yl]-cyclobutyl}-phenyl)-pyrimidin-2-ylamine] | 4.3 | 260 | –
Nc1ncc(-c2ccc(C3(c4noc(-c5ccc(F)cc5)n4)CCC3)cc2)cn1 [Example 51, 5-(4-{1-[5-(4-Fluoro-phenyl)-1,2,4-oxadiazol-3-yl]-cyclobutyl}-phenyl)-pyrimidin-2-ylamine] | 7 | 1000 | –
Cc1cccc(-c2nc(C3(c4ccc(-c5cnc(N)nc5)cc4)CCC3)no2)c1 [Example 34, 5-{4-[1-(5-m-tolyl-1,2,4-oxadiazol-3-yl)-cyclobutyl]-phenyl}-pyrimidin-2-ylamine] | 7.7 | 780 | –
CC(C)CNC(=O)Cn1cc(-c2nc(C3(c4ccc(-c5cnc(N)nc5)cc4)CCC3)no2)cn1 [Example 217, 2-[4-(3-{1-[4-(2-Amino-pyrimidin-5-yl)-phenyl]-cyclobutyl}-[1,2,4]oxadiazol-5-yl)-pyrazol-1-yl]-N-isobutyl-acetamide] | 3.4 | 81 | –
Nc1ncc(-c2ccc(C3(c4noc(-c5cccc(O)c5)n4)CCC3)cc2)cn1 [Example 43, 3-(3-{1-[4-(2-Amino-pyrimidin-5-yl)-phenyl]-cyclobutyl}-1,2,4-oxadiazol-5-yl)-phenol] | 3.2 | 230 | –
Nc1ncc(-c2ccc(C3(c4noc(-c5cnn(CC(=O)N6CCC(O)C6)c5)n4)CCC3)cc2)cn1 (stereo not drawn) [Example 239, 2-[4-(3-{1-[4-(2-Amino-pyrimidin-5-yl)-phenyl]-cyclobutyl}-[1,2,4]oxadiazol-5-yl)-pyrazol-1-yl]-1-(3-hydroxy-pyrrolidin-1-yl)-ethanone] | 6.2 | 2500 | –

Other lines, results leading:

IC50 [1] [nM] | IC50 ([2]; Homo sapiens) [nM] | IC50 [2] [nM] | Compound
1.1 | 130 | – | Nc1ncc(-c2ccc(C3(c4noc(-c5cnc(NCCO)cn5)n4)CCC3)cc2)cn1 [Example 68, 2-[5-(3-{1-[4-(2-Amino-pyrimidin-5-yl)-phenyl]-cyclobutyl}-1,2,4-oxadiazol-5-yl)-pyrazin-2-ylamino]-ethanol]
5 | – | > 5000 | COC(=O)[C@H]1CN(c2cnc(-c3nc(C4(c5ccc(-c6cnc(N)nc6)cc5)CCC4)no3)cn2)CCN1 [Example 125, (R)-5′-(3-{1-[4-(2-Amino-pyrimidin-5-yl)-phenyl]-cyclobutyl}-1,2,4-oxadiazol-5-yl)-3,4,5,6-tetrahydro-2H-1,2′-bipyrazinyl-3-carboxylic acid methyl ester]
1.3 | 13 | – | COCCNc1cnc(-c2nc(C3(c4ccc(-c5cnc(N)nc5)cc4)CCC3)no2)cn1 [Example 62, 5-[4-(1-{5-[5-(2-Methoxy-ethylamino)-pyrazin-2-yl]-1,2,4-oxadiazol-3-yl}-cyclobutyl)-phenyl]-pyrimidin-2-ylamine]
2.9 | 390 | – | COC(=O)c1ccc(-c2nc(C3(c4ccc(-c5cnc(N)nc5)cc4)CCC3)no2)cn1 [Example 170, 5-(3-{1-[4-(2-Amino-pyrimidin-5-yl)-phenyl]-cyclobutyl}-1,2,4-oxadiazol-5-yl)-pyridine-2-carboxylic acid methyl ester]
